Measurements taken from patent US20230201217A1 (priority 2019, published 2023).
Values joined by “and” are separate entries in the source; they are usually repeats but may differ in a detail not shown here. Equal entries are not always repeated.

How the values were obtained:
plasma protein [1] = assay: Plasma protein binding; format: in vitro ADME, Monkey
Description: (§1) There is no information on the protein binding of any of the metabolites.

cynomolgus monkeys = assay: 14-day nasogastric gavage GLP toxicity study in cynomolgus monkeys; format: in vivo, cynomolgus monkey; conditions: 14 days
Description: Assessments of neurobehavioral effects and general toxicity were based on mortality, functional observational battery (FOB) evaluations, clinical observations, body weight, and body temperature; ophthalmoscopic, electrocardiographic examinations; and anatomic and clinical pathology. The anatomical pathology evaluations included histopathology of a full list of tissues from all animals and a comprehensive evaluation of the central nervous system (including selected peripheral nerves) utilizing whole body perfusion and special stains. Bone marrow smears from all animals were evaluated microscopically. Complete differentials and myeloid-erythroid (ME) ratios were performed. Toxicokinetic assessment was conducted for the test article and metabolites.

plasma protein [2] = assay: Plasma protein binding, all species tested; format: in vitro ADME
Procedure: In all the species tested in pre-clinical studies, 18-MC is rapidly absorbed following oral administration with Tmax occurring in less than 0.5 hours following oral administration. After oral administration, the elimination of 18-MC is multi-compartmental. In plasma, 18-MC is highly protein bound (92% to 98%). 18-MC is also rapidly and extensively metabolized, presumably by first pass metabolism. At least […] different metabolites have been detected both in vitro and in vivo, further described below (M1-M9, P1-P3). The major metabolites (those with exposure greater than 10% of the total drug related material) appear to change with the dose and duration of dosing. Major metabolites include M2, M4, M5, M8, M9 and P2 depending on the animal species tested, and the dose and duration of dosing.
as §1

COCC[C@H]1CC2CN3CCc4c([nH]c5ccccc45)[C@](C(=O)OC)(C2)[C@H]13 [18-MC, 18-methoxycoronaridine]
% Bound Mean ± SD (plasma protein [1]; 200 ng/mL): 98.4 ± 0.643% | % Bound Mean ± SD (plasma protein [1]; 600 ng/mL): 97.7 ± 0.100% | % Bound Mean ± SD (plasma protein [1]; 5,000 ng/mL): 97.2 ± 0.100% | Average % Bound Mean ± SD (plasma protein [1]; average of 3 concentrations): 97.8 ± 0.603% | NOAEL (cynomolgus monkeys): 50 mg/kg/day | protein bound in plasma (plasma protein [2]): 95-98% and 92-98%
